Results: PMC10226046, “Prodrug Strategies for the Development of β-L-5-((E)-2-Bromovinyl)-1-((2S,4S)-2-(hydroxymethyl)-1,3-(dioxolane-4-yl))uracil (L-BHDU) against Varicella Zoster Virus (VZV)” (Journal of Medicinal Chemistry, 2023)

What was measured:
VZV-ORF57-ΔTK = test: microbe, parasite or virus in culture; format: cell-based, Varicella zoster virus; conditions: Human alphaherpesvirus 3, ARPE-19
VZV-ORF57-Luc [1] = test: microbe, parasite or virus in culture; conditions: Human alphaherpesvirus 3, ARPE-19, cell-free VZV-ORF57-Luc, ARPE-19 cells, 72 hpi, bioluminescence imaging
[2] = Oral pharmacokinetic absorption study in BALB/c mice (plasma, LC-MS/MS); format: in vivo; conditions: after oral 22.5 mg/kg POM-L-BHDU-MP, LC/MS
Description: A pharmacokinetic absorption study was performed in BALB/c mice (Charles River). A single equimolar dose of 22.5 mg/kg POM-L-BHDU-MP or 11.4 mg/kg L-BHDU was dissolved in Cremophor–dimethyl sulfoxide (DMSO)–saline (1:1:8) and administered by oral gavage to two groups of mice with equal numbers of male and female mice (N = 15 each male and female).
Plasma was separated from red blood cells and immediately frozen at −80 °C.
This animal protocol #282 was approved by the IACUC at SUNY Upstate Medical University, which has been fully accredited by AAALAC since 7/31/1999. This method was previously used to evaluate L-BHDU effects on 5-fluorouracil metabolism.[16] Briefly, a single equimolar dose of 22.5 mg/kg POM-L-BHDU-MP or 11.4 mg/kg L-BHDU was dissolved in Cremophor–DMSO–saline (1:1:8) and administered by oral gavage to two groups of BALB/c mice (Charles River) with equal numbers of male and female mice (N = 15 each male and female). Six untreated mice were used for blank controls and were labeled time 0. At 20, 40, 60, and 120 min, three mice from the POM-L-BHDU-MP group and three mice from the L-BHDU group were anesthetized with inhaled isoflurane and then exsanguinated by cardiac puncture. Blood samples were collected into a tube containing heparin. Plasma was separated from red blood cells by centrifugation at 10,000 rpm for 5 min. Plasma was transferred to a new tube and immediately frozen at −80 °C.
Plasma samples were thawed, and exactly 0.95 mL was removed for analysis. The internal standard azidothymidine was added to mouse plasma samples at a final concentration of 20 ng/mL. Proteins were precipitated from the plasma by adding 2× volumes of methanol, then the samples were clarified by centrifugation. The supernatants were dried using an N-EVAP 116 analytical nitrogen evaporator and then reconstituted with 50% methanol in water. LC-MS/MS was used to analyze the concentrations of POM-L-BHDU-MP, L-BHDU, and L-BHDU-MP. Calibration curves were made using BALB/c mouse plasma (Innovative Research, Inc. Novi MI) prior to analyzing the experimental samples.
The primary stock solutions for the calibration were prepared at 0.5 mg/mL for L-BHDU, 1 mg/mL for POM-L-BHDU-MP, and 1 mg/mL for L-BHDU-MP. The primary stock solutions were diluted to working solutions that were in turn used to spike the biological matrix of interest. L-BHDU calibration points were 100.0, 400.0, 800.0, 1000.0, 4000.0, 6000.0, 8000.0, 10,000.0, and 12,000.0 ng/mL. L-BHDU-MP calibration points were 100.0, 200.0, 400.0, 800.0, 1000.0, 2000.0, 4000.0, 6000.0, and 8000.0 ng/mL. The ISTD working solution of AZT was prepared at 20 ng/mL. The standard stock solutions were stored in −80 °C freezer until used. […] The samples were analyzed in a negative ESI mode. […]

VZV-ORF57-Luc [3] = test: microbe, parasite or virus in culture; format: cell-based, Varicella zoster virus; conditions: Human alphaherpesvirus 3, ARPE-19
VZV-ORF57-ΔTKTS = test: microbe, parasite or virus in culture; format: cell-based, Varicella zoster virus; conditions: Human alphaherpesvirus 3, ARPE-19
[4] = Stability in gastric and intestinal juice; format: in vitro ADME; conditions: data not shown

## CC(C)(C)C(=O)OCOP(=O)(OCOC(=O)C(C)(C)C)OC[C@H]1OC[C@@H](n2cc(/C=C/Br)c(=O)[nH]c2=O)O1 [POM-L-BHDU-MP (41), Bis(POM) Prodrug of L-BHDU-MP]
VZV-ORF57-ΔTK
  EC50: > 2000 nM
VZV-ORF57-Luc [1]
  EC50: 35 nM
[2]
  L-BHDU-MP detected in plasma: below the limit of quantitation
VZV-ORF57-Luc [3]
  EC50: 51 nM
VZV-ORF57-ΔTKTS
  EC50: > 2000 nM
[4]
  stability in gastric and intestinal juice: good stability
